These results are taken from patent US10981894B2, “Melanocortin subtype-2 receptor (MC2R) antagonists and uses thereof” (Crinetics Pharmaceuticals, Inc., priority 2018, dated 2021).

The assay addresses hMC2 receptor (Homo sapiens, UniProt Q01718). Kind of assay: hMC2 membrane binding assay ([125I]ACTH (1-39) Tyr23, SPA). Details: scale not given here. The conditions noted are these: crude hMC2R membranes from CRE-bla-CHO-K1 cells expressing hMC2 receptor and hMRAP; [125I]ACTH (1-39) Tyr23 0.2 nM; 1.5 hours at room temperature; read-out: MC2R binding potency. The protocol: Crude membrane fractions are prepared from CRE-bla-CHO-K1 cells stably expressing hMC2 receptor and hMRAP accessory protein (Thermo Fisher). The cells are grown to 85-100% confluence on standard tissue culture dishes in GlutaMax DMEM growth media (Gibco) with following additives: 10% dialyzed FBS (Gemini), 0.1 mM NEAA (Gibco), 25 mM HEPES (Gibco), 5 μg/mL blasticidin (Goldbio), 100 μg/mL zeocin (Invitrogen), 600 μg/mL hygromycin (Goldbio). To prepare membranes, cells are scraped and collected in 1× Dulbecco's phosphate buffered saline (Corning) and then pelleted at 1000 RPM's. The cell pellet is reconstituted in membrane preparation buffer (20 mM HEPES, 6 mM MgCl2 and 1 mM EGTA, protease inhibitor tablets (Pierce) adjusted to pH 7.4), homogenized using a dounce homogenizer, and the resulting membrane fraction is pelleted by centrifugation at 12,000 RPM's. The membrane pellet is resuspended in membrane preparation buffer, snap freezed and stored at −80° C. for later use.
Binding Assay for hMC2 Antagonists Protocol:
The hMC2 membrane binding assay utilizes the following components: radiolabel [^125I]ACTH (1-39) Tyr23 (PerkinElmer), wheatgerm agglutinin coated PVT SPA beads (PerkinElmer), crude hMC2R membranes, and compounds. Briefly hMC2R membranes are incubated with SPA beads in binding assay buffer (50 mM HEPES, 5 mM MgCl2, 1 mM CaCl2, 0.2% BSA, protease inhibitor tablets (Pierce) adjusted to pH7.4) prior to assay initiation. A dose response of compound (the final concentration of compound are typically 0-10,000 nM), SPA membranes, and [^125I]ACTH (1-39) Tyr23 at a final concentration of 0.2 nM is plated in a 96-well assay plate and allowed to incubate 1.5 hours at room temperature. Assay plates are read using a Top Count NXT and Ki values for compounds are determined using a GraphPad Prism 6 non-linear regression analysis.

Sequence of hMC2 receptor (Q01718 whole entry): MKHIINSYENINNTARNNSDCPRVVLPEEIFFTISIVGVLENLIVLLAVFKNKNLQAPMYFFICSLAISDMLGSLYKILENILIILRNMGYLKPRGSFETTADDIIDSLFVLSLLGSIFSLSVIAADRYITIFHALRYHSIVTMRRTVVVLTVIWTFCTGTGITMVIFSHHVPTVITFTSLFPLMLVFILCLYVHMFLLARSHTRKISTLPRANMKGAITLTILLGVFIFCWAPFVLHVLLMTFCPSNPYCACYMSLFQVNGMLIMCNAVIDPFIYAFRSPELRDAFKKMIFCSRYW
Sequence of hMC2 receptor (Q8TCY5 whole entry partner): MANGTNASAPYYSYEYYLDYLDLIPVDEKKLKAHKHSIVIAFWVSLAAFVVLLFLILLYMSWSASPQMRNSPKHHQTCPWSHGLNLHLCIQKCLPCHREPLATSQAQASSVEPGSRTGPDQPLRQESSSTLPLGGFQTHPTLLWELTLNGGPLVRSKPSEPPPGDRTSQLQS

Turning to `CCOc1ncccc1-c1ccc(N2CCN(C(=O)c3ccc(F)cc3Cl)C[C@H]2CC)c(C(=O)N[C@@H]2CCNC2)c1` [Compound 1-82, 2-[(2R)-4-(2-chloro-4-fluorobenzoyl)-2-ethylpiperazin-1-yl]-5-(2-ethoxypyridin-3-yl)-N-[(3R)-pyrrolidin-3-yl]benzamide], the Ki was below 10 nM.
For the molecule `CCOc1ncccc1-c1ccc(N2CCN(C(=O)c3ccc(C)cc3N3CC[C@H](NC)C3)C[C@H]2CC)c(C(=O)NCCN)c1` [Compound 1-67, N-(2-aminoethyl)-5-(2-ethoxypyridin-3-yl)-2-[(2R)-2-ethyl-4-{4-methyl-2-[(3S)-3-(methylamino)pyrrolidin-1-yl]benzoyl}piperazin-1-yl]benzamide], the Ki is below 10 nM.
Take `CCOc1ncccc1-c1ccc(N2CCN(C(=O)C3(C(F)(F)F)CCCC3)C[C@H]2CC)c(C(=O)NC[C@@H]2CCN2C)n1` [Compound 1-331, 2′-ethoxy-5-[(2R)-2-ethyl-4-[1-(trifluoromethyl)cyclopentanecarbonyl]piperazin-1-yl]-N-{[(2S)-1-methylazetidin-2-yl]methyl}-[2,3′-bipyridine]-6-carboxamide]: the Ki was below 10 nM.
The result for `CCOc1ncccc1-c1ccc(N2CCN(C(=O)C3(C(F)(F)F)CCCC3)C[C@H]2CC)c(C(=O)N[C@@H]2CCN(C)C2)n1` [Compound 1-255, 2′-ethoxy-5-[(2R)-2-ethyl-4-[1-(trifluoromethyl)cyclopentanecarbonyl]piperazin-1-yl]-N-[(3R)-1-methylpyrrolidin-3-yl]-[2,3′-bipyridine]-6-carboxamide] reads below 10 nM; that for `CC[C@@H]1CN(C(=O)c2ccc(C(F)(F)F)cc2Cl)CCN1c1ccc(-c2cccc(F)c2F)cc1C(=O)NCCN` [Compound 1-1, N-(2-aminoethyl)-4-[(2R)-4-[2-chloro-4-(trifluoromethyl)benzoyl]-2-ethylpiperazin-1-yl]-2′,3′-difluoro-[1,1′-biphenyl]-3-carboxamide], 10 to 100 nM.
Turning to `CCOc1ncccc1-c1ccc(N2CCN(C(=O)c3ccc(Cl)cc3C(F)(F)F)C[C@H]2CC)c(C(=O)NC[C@@H]2CCN2)c1` [Compound 1-97, N-{[(2S)-azetidin-2-yl]methyl}-2-[(2R)-4-[4-chloro-2-(trifluoromethyl)benzoyl]-2-ethylpiperazin-1-yl]-5-(2-ethoxypyridin-3-yl)benzamide], the Ki was below 10 nM.
As for `CCOc1ccccc1-c1ccc(N2CCN(C(=O)OC3(C(F)(F)F)CCC3)C[C@H]2CC)c(C(=O)N[C@@H]2CCNC2)n1` [Compound 1-338, 1-(trifluoromethyl)cyclobutyl (3R)-4-[6-(2-ethoxyphenyl)-2-{[(3R)-pyrrolidin-3-yl]carbamoyl}pyridin-3-yl]-3-ethylpiperazine-1-carboxylate], the figure is below 10 nM; as for `CCOc1ncccc1-c1ccc(N2CCN(C(=O)c3ccc(Cl)cc3C(F)(F)F)C[C@H]2CC)c(C(=O)N[C@@H]2CCN(C)C2)n1` [Compound 1-152, 5-[(2R)-4-[4-chloro-2-(trifluoromethyl)benzoyl]-2-ethylpiperazin-1-yl]-2′-ethoxy-N-[(3R)-1-methylpyrrolidin-3-yl]-[2,3′-bipyridine]-6-carboxamide], below 10 nM.
Take `CCOc1ncccc1-c1ccc(N2CCN(C(=O)c3ccc(Cl)cc3C(F)(F)F)C[C@H]2CC)c(C(=O)NCCN(C)C)n1` [Compound 1-150, 5-[(2R)-4-[4-chloro-2-(trifluoromethyl)benzoyl]-2-ethylpiperazin-1-yl]-N-[2-(dimethylamino)ethyl]-2′-ethoxy-[2,3′-bipyridine]-6-carboxamide Acetate]: the Ki is below 10 nM.
Take `CCOc1ccccc1-c1ccc(N2CCN(C(=O)C3(C(F)(F)F)CCCC3)C[C@H]2CC)c(C(=O)NC2CN(C)C2)n1` [Compound 1-399, 6-(2-ethoxyphenyl)-3-[(2R)-2-ethyl-4-[1-(trifluoromethyl)cyclopentanecarbonyl]piperazin-1-yl]-N-(1-methylazetidin-3-yl)pyridine-2-carboxamide]: the Ki is below 10 nM.
Regarding `CCOc1ncccc1-c1ccc(N2CCN(C(=O)N3CCCC[C@H]3C(F)(F)F)C[C@H]2CC)c(C(=O)N[C@@H]2CCN(C)C2)n1` [Compound 1-427, 2′-ethoxy-5-[(2R)-2-ethyl-4-[(2S)-2-(trifluoromethyl)piperidine-1-carbonyl]piperazin-1-yl]-N-[(3R)-1-methylpyrrolidin-3-yl]-[2,3′-bipyridine]-6-carboxamide], the Ki is below 10 nM.
With `CCOc1ncccc1-c1ccc(N2CCN(C(=O)c3ccc(F)cc3N3CC(N)C3)C[C@H]2CC)c(C(=O)NCCN(C)C)c1` [Compound 1-148, 2-[(2R)-4-[2-(3-aminoazetidin-1-yl)-4-fluorobenzoyl]-2-ethylpiperazin-1-yl]-N-[2-(dimethylamino)ethyl]-5-(2-ethoxypyridin-3-yl)benzamide], the Ki is below 10 nM.
In the case of `CCOc1ncccc1-c1ccc(N2CCN(C(=O)c3ccc(Cl)cc3C(F)F)C[C@H]2CC)c(C(=O)NCCNC)n1` [Compound 1-213, 5-[(2R)-4-[4-chloro-2-(difluoromethyl)benzoyl]-2-ethylpiperazin-1-yl]-2′-ethoxy-N-[2-(methylamino)ethyl]-[2,3′-bipyridine]-6-carboxamide], the Ki was below 10 nM.
As for `CCOc1ncccc1-c1ccc(N2CCN(C(=O)C3(C(F)(F)F)CC4CCC3C4)C[C@H]2CC)c(C(=O)NCC2CN(C)C2)n1` (stereo partly drawn) [Compound 1-339, 2′-ethoxy-5-[(2R)-2-ethyl-4-[2-(trifluoromethyl)bicyclo[2.2.1]heptane-2-carbonyl]piperazin-1-yl]-N-[(1-methylazetidin-3-yl)methyl]-[2,3′-bipyridine]-6-carboxamide], the Ki was below 10 nM.
`CCOc1ccccc1-c1ccc(N2CCN(C(=O)N3CCC[C@H]3C(C)(C)F)C[C@H]2CC)c(C(=O)N[C@@H]2CCN(C)C2)n1` [Compound 1-412, 6-(2-ethoxyphenyl)-3-[(2R)-2-ethyl-4-[(2S)-2-(2-fluoropropan-2-yl)pyrrolidine-1-carbonyl]piperazin-1-yl]-N-[(3R)-1-methylpyrrolidin-3-yl]pyridine-2-carboxamide]: the Ki is below 10 nM.
As for `CCOc1ncccc1-c1ccc(N2CCN(C(=O)c3ccc(F)cc3C(F)(F)F)C[C@H]2CC)c(C(=O)NCCN(C)C)c1F` [Compound 1-174, N-[2-(dimethylamino)ethyl]-3-(2-ethoxypyridin-3-yl)-6-[(2R)-2-ethyl-4-[4-fluoro-2-(trifluoromethyl)benzoyl]piperazin-1-yl]-2-fluorobenzamide], the figure is below 10 nM; as for `CCOc1ncccc1-c1ccc(N2CCN(C(=O)c3ccc(Cl)cc3C(F)F)C[C@H]2CC)c(C(=O)N[C@@H]2CCNC2)c1F` [Compound 1-190, 6-[(2R)-4-[4-chloro-2-(difluoromethyl)benzoyl]-2-ethylpiperazin-1-yl]-3-(2-ethoxypyridin-3-yl)-2-fluoro-N-[(3R)-pyrrolidin-3-yl]benzamide], below 10 nM; as for `CCOc1ncccc1-c1ccc(N2CCN(C(=O)c3ccc(OC)cc3C(F)(F)F)C[C@H]2CC)c(C(=O)NCCNC)n1` [Compound 1-167, 2′-ethoxy-5-[(2R)-2-ethyl-4-[4-methoxy-2-(trifluoromethyl)benzoyl]piperazin-1-yl]-N-[2-(methylamino)ethyl]-[2,3′-bipyridine]-6-carboxamide], below 10 nM.
Take `CCOc1ccccc1-c1ccc(N2CCN(C(=O)C34CCC(C(F)(F)F)(CC3)C4)C[C@H]2CC)c(C(=O)N[C@@H]2CCN(C)C2)n1` [Compound 1-388, 6-(2-ethoxyphenyl)-3-[(2R)-2-ethyl-4-[4-(trifluoromethyl)bicyclo[2.2.1]heptane-1-carbonyl]piperazin-1-yl]-N-[(3R)-1-methylpyrrolidin-3-yl]pyridine-2-carboxamide]: the Ki was below 10 nM.
On to `CCOc1ncccc1-c1ccc(N2CCN(C(=O)C3(CC)CCCC3)C[C@H]2CC)c(C(=O)NCCNC)n1` [Compound 1-264, 2′-ethoxy-5-[(2R)-2-ethyl-4-(1-ethylcyclopentanecarbonyl)piperazin-1-yl]-N-[2-(methylamino)ethyl]-[2,3′-bipyridine]-6-carboxamide], for which the Ki was below 10 nM.
As for `CCOc1ncccc1-c1ccc(N2CCN(C(=O)c3ccc(Cl)cc3C#N)C[C@H]2CC)c(C(=O)N[C@@H]2CCNC2)n1` [Compound 1-277, 5-[(2R)-4-(4-chloro-2-cyanobenzoyl)-2-ethylpiperazin-1-yl]-2′-ethoxy-N-[(3R)-pyrrolidin-3-yl]-[2,3′-bipyridine]-6-carboxamide], the Ki was below 10 nM.
The result for `CCOc1ncccc1-c1ccc(N2CCN(C(=O)c3ccc(Cl)cc3C(F)(F)F)C[C@H]2CC)c(C(=O)NC[C@H]2CCN2)c1F` [Compound 1-123, N-{[(2R)-azetidin-2-yl]methyl}-6-[(2R)-4-[4-chloro-2-(trifluoromethyl)benzoyl]-2-ethylpiperazin-1-yl]-3-(2-ethoxypyridin-3-yl)-2-fluorobenzamide] reads below 10 nM.
